Experimental data reported in patent US12698324B2, “Cystic lymphangioma treatment drug” (National University Corporation University of Toyama, priority 2020, dated 2026).

Tested on: cystic lymphangioma of PDGFRβ knockout mice
Assay: Therapy experiment in cystic lymphangioma of PDGFRβ knockout mice (diameter of LYVE1-positive lymph vessels)
Type: in vivo, mouse
Conditions: intraperitoneal three times a week (Erlotinib 50 mg/kg; antibody 5 μg/body), compared with the group of PDGFRβ knockout mice without treatment
Description: To PDGFRβ knockout mice, a neutralizing antibody against amphiregulin (AF989, R&D Systems Inc.) and Erlotinib having EGFR inhibitory activity (Selleck Biotech) were administered for the purpose of treating cystic lymphangioma. The neutralizing antibody against amphiregulin was dissolved in PBS at 25 μg/mL and administered intraperitoneally at 5 μg/body three times a week. Erlotinib was dissolved in DMSO at 50 mg/mL and administered intraperitoneally at 50 mg/kg three times a week. A group of PDGFRβ knockout mice without treatment and a control group of mice in which PDGFRβ was not knocked out were also prepared.
The tissues of PDGFRβ knockout mice were fixed with paraformaldehyde (PFA). Paraffin sections were prepared using fixed samples. The tissue sections were washed with a buffer and antigen-retrieved by heating in a microwave oven for 5 minutes using a commercial retrieval solution. Next, each sample was washed with a buffer solution and the tissues or the cells were subjected to a commercial blocking solution (room temperature, one hour).
Next, each sample was washed with a buffer and subjected to an anti-LYVE1 antibody (Abcam, a primary antibody) at optimum concentration (4° C., overnight). […] The obtained sample was observed and photographed with a fluorescence microscope.
The diameter of each lymph vessel was measured with ImageJ imaging software based on the photographed images. […]

C#Cc1cccc(Nc2ncnc3cc(OCCOC)c(OCCOC)cc23)c1 [Erlotinib]
diameter of dilated lymph vessels: significantly reduced
